From patent US12011444B2, “N-substituted indole derivatives as PGE2 receptor modulators” (Idorsia Pharmaceuticals Ltd, priority 2015, dated 2024)

How the values were obtained:
[1] = target: EP2 (Homo sapiens (Human), UniProt P43116);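 also: antagonism of PGE2-stimulated cAMP accumulation in SF295 human glioblastoma cells with endogenous EP2, cAMP read by HTRF, expressed relative to DMSO control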
[2] = target: EP4 (Homo sapiens (Human), UniProt P35408); assay: hEP4 cAMP assay (BT549 breast cancer cells, HTRF cAMP); assay type: cell-based; details: antagonistic activity; mean values where measured multiple times
Sequence of EP4 (P35408 whole entry): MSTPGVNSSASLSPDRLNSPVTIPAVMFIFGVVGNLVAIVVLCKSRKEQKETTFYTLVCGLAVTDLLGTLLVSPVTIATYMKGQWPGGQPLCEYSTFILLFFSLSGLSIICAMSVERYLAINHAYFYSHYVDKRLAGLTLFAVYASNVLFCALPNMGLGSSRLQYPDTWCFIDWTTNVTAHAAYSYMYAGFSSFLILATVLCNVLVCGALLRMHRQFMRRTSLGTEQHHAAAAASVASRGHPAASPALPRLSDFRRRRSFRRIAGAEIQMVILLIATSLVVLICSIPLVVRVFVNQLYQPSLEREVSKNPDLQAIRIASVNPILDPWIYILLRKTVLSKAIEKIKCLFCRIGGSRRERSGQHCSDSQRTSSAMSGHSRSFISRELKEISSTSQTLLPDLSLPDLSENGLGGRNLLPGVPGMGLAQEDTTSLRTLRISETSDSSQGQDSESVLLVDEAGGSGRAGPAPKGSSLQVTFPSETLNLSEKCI
Procedure: Plate is pre-incubated 45 minutes at room temperature. Subsequently, 2.5 microliters of PGE2 (final conc. 6 nM) are transferred into the assay plate. Plate is incubated 30 minutes at room temperature.

Sequence of EP2 (P43116 whole entry): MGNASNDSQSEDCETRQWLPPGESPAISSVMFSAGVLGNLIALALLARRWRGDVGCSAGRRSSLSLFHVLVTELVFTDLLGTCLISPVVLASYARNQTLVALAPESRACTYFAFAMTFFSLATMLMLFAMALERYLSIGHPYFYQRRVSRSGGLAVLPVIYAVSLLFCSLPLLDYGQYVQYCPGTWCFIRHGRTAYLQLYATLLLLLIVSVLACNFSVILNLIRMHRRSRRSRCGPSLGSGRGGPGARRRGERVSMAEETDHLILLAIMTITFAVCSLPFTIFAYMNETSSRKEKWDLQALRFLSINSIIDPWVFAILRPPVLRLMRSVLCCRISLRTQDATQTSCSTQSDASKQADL

Structure (SMILES) | IC50 [1] [nM] | IC50 [2] [nM]
COc1c(F)ccc2c1cc(C)n2CCNc1cc(-c2ccc(C(=O)O)c(CC(C)C)c2)ncn1 [compound 538] | 64 | 261
COc1ccc(F)c2cc(C)n(CCNc3cc(-c4ccc(C(=O)O)c(CC(C)C)c4)ncn3)c12 [compound 539] | 160 | 948
CCSc1cc(-c2cc(NCCn3c(C)cc4c(OC)c(F)cc(Cl)c43)ncn2)ccc1C(=O)O [compound 542] | 44 | 522
CCOc1cc(-c2cc(NCCn3c(C)cc4c(C(F)(F)F)ccc(F)c43)ncn2)ccc1C(=O)O [compound 543] | 990 | 250
Cc1cc(F)cc2c1cc(C)n2CCNc1cc(-c2ccc(-c3csc(C(=O)O)n3)cc2)ncn1 [compound 544] | 47 | 178
Cc1cc(F)cc2c1cc(C)n2CCNc1cc(-c2ccc(-c3cncn3C)cc2)ncn1 [compound 547] | 63 | 232
COc1ccc(F)c2c1cc(C)n2CCNc1cc(-c2ccc(C(=O)NCCN(C)C)cc2)ncn1 [compound 549] | 131 | 865
Cc1cc2c(Cl)cc(Cl)cc2n1CCNc1cc(-c2ccc(-c3csc(C(=O)O)n3)cc2)ncn1 [compound 550] | 33 | 573
Cc1nnc(-c2ccc(-c3cc(NCCn4c(C)cc5c(C)ccc(F)c54)ncn3)cc2)o1 [compound 553] | 102 | 192
CCNC(=O)Nc1ccc(-c2cc(NCCn3c(C)cc4c(OC)ccc(Cl)c43)ncn2)cc1OC [compound 554] | 56 | 65
COc1ccc(F)c2c1cc(C)n2CCNc1cc(-c2cccc(-n3cccn3)c2)ncn1 [compound 556] | 54 | 418
Cc1ccc(F)c2c1cc(C)n2CCNc1cc(-c2ccc(-c3ccccn3)cc2)ncn1 [compound 561] | 102 | 374
CCOc1cc(-c2cc(NCCn3c(C)cc4c(C)ccc(F)c43)ncn2)ccc1CNCCOC [compound 562] | 359 | 547
CNS(=O)(=O)c1ccc(-c2cc(NCCn3c(C)cc4c(C)ccc(F)c43)ncn2)cc1C(F)(F)F [compound 563] | 111 | 601
COc1ccc(F)c2c1cc(C)n2CCNc1cc(-c2ccc(C3(C(=O)O)CC3)c(F)c2)ncn1 [compound 564] | 75 | 317
Cc1nc(-c2ccc(-c3cc(NCCn4c(C)cc5c(C)cc(F)cc54)ncn3)cc2)co1 [compound 565] | 77 | 434
COc1cccc2c1cc(C)n2CCNc1cc(-c2ccc(-c3csc(C)n3)cc2)ncn1 [compound 566] | 46 | 537
CCCc1cc(-c2cc(NCCn3c(C)cc4c(OC(F)(F)F)ccc(F)c43)ncn2)ccc1C(=O)O [compound 570] | 773 | 309
COc1ccc(F)c2c1cc(C)n2CCNc1cc(-c2ccc(-c3nnc(C)o3)cc2)ncn1 [compound 574] | 33 | 208
Cc1cc(F)c(F)c2c1cc(C)n2CCNc1cc(-c2ccc(-c3cncn3C)cc2)ncn1 [compound 576] | 399 | 355
Cc1cc(F)c(F)c2c1cc(C)n2CCNc1cc(-c2ccc(-c3cnc(N)o3)cc2)ncn1 [compound 577] | 114 | 118
COc1cc(F)cc2c1cc(C)n2CCNc1cc(-c2ccc(-c3cncn3C)cc2)ncn1 [compound 582] | 50 | 161
COc1ccc(F)c2c1cc(C)n2CCNc1cc(-c2ccc(-c3cncn3C)cc2)ncn1 [compound 584] | 39 | 148
COc1cc(F)cc2c1cc(C)n2CCNc1cc(-c2ccc(-c3coc(C)n3)cc2)ncn1 [compound 585] | 31 | 203
CCOc1cc(-c2cc(NCCn3c(C)cc4c(OC)ccc(F)c43)ncn2)ccc1CNCC(C)C [compound 586] | 729 | 865
CCOc1cc(-c2cc(NCCn3c(C)cc4c(OC)ccc(F)c43)ncn2)ccc1CNCCOC [compound 589] | 228 | 707

These reach a lower IC50 [1]. Values come first.

IC50 [1] [nM] | IC50 [2] [nM] | Structure (SMILES)
3 | 88 | CCCCOc1cc(-c2cc(NCCn3c(C)cc4c(C)ccc(F)c43)ncn2)ccc1C(=O)O [compound 533]
8 | 91 | Cc1ccc(F)c2c1cc(C)n2CCNc1cc(-c2ccc(C(=O)O)c(OCC(C)C)c2)ncn1 [compound 534]
27 | 172 | COc1ccc(Cl)c2c1cc(C)n2CCNc1cc(-c2ccc(C(=O)O)c(CC(C)C)c2)ncn1 [compound 536]
22 | 81 | COc1ccc(F)c2c1cc(C)n2CCNc1cc(-c2ccc(C(=O)O)c(CC(C)C)c2)ncn1 [compound 537]
18 | 23 | COc1ccc(F)c2c1cc(C)n2CCNc1cc(-c2cc(C(F)(F)F)c(C(=O)O)s2)nc(C)n1 [compound 540]
19 | 25 | COc1cc(F)cc2c1cc(C)n2CCNc1cc(-c2cc(C(F)(F)F)c(C(=O)O)s2)nc(C)n1 [compound 541]
29 | 119 | Cc1cc(F)cc2c1cc(C)n2CCNc1cc(-c2ccc(-c3nc(C(=O)O)cs3)cc2)ncn1 [compound 545]
16 | 57 | Cc1ccc(F)c2c1cc(C)n2CCNc1cc(-c2ccc(-c3nc(C(=O)O)cs3)cc2)ncn1 [compound 546]
6 | 61 | Cc1nc(-c2ccc(-c3cc(NCCn4c(C)cc5c(C)cc(F)cc54)ncn3)cc2)c[nH]1 [compound 548]
5 | 339 | Cc1cc2c(Cl)cc(Cl)cc2n1CCNc1cc(-c2ccc(-c3nc(C(=O)O)cs3)cc2)ncn1 [compound 551]
26 | 118 | Cc1cc(F)cc2c1cc(C)n2CCNc1cc(-c2ccc(-c3cnc(N)o3)cc2)ncn1 [compound 552]
23 | 28 | CCNC(=O)Nc1ccc(-c2cc(NCCn3c(C)cc4c(OC)ccc(F)c43)ncn2)cc1OC [compound 555, 1-Ethyl-3-(4-{6-[2-(7-fluoro-4-methoxy-2-methyl-indol-1-yl)-ethylamino]-pyrimidin-4-yl}-2-methoxy-phenyl)-urea]
5 | 78 | COc1cccc2c1cc(C)n2CCNc1cc(-c2ccc(-c3nc(C(=O)O)cs3)cc2)ncn1 [compound 557]
16 | 111 | COc1cc(F)cc2c1cc(C)n2CCNc1cc(-c2ccc(-c3ccon3)cc2)ncn1 [compound 558]
7 | 107 | Cc1ccc(F)c2c1cc(C)n2CCNc1cc(-c2ccc(C(=O)O)c(NCC(F)(F)F)c2)ncn1 [compound 560, 4-{6-[2-(7-Fluoro-2,4-dimethyl-indol-1-yl)-ethylamino]-pyrimidin-4-yl}-2-(2,2,2-trifluoro-ethylamino)-benzoic acid]
17 | 89 | COc1ccc(F)c2c1cc(C)n2CCNc1cc(-c2ccc(S(N)(=O)=O)c(C(F)(F)F)c2)ncn1 [compound 567, 4-{6-[2-(7-Fluoro-4-methoxy-2-methyl-indol-1-yl)-ethylamino]-pyrimidin-4-yl}-2-trifluoromethyl-benzenesulfonamide]
1 | 118 | COc1cccc2c1cc(C)n2CCNc1cc(-c2ccc(C(=O)O)c(NCC(F)(F)F)c2)ncn1 [compound 568, 4-{6-[2-(4-Methoxy-2-methyl-indol-1-yl)-ethylamino]-pyrimidin-4-yl}-2-(2,2,2-trifluoro-ethylamino)-benzoic acid]
17 | 77 | Cc1cc(F)cc2c1cc(C)n2CCNc1cc(-c2ccc(-c3nnc(N)s3)cc2)ncn1 [compound 569]
18 | 45 | COc1cc(F)cc2c1cc(C)n2CCNc1cc(-c2ccc(-c3cnc(N)o3)cc2)ncn1 [compound 572]
7 | 21 | COc1ccc(F)c2c1cc(C)n2CCNc1cc(-c2ccc(-c3cnc(N)o3)cc2)ncn1 [compound 573]
22 | 52 | Cc1nc(-c2ccc(-c3cc(NCCn4c(C)cc5c(C)cc(F)c(F)c54)ncn3)cc2)c[nH]1 [compound 575]
9 | 52 | COc1cc(F)cc2c1cc(C)n2CCNc1cc(-c2ccc(-c3csc(C(=O)O)n3)cc2)ncn1 [compound 578]
11 | 41 | COc1cc(F)cc2c1cc(C)n2CCNc1cc(-c2ccc(-c3nc(C(=O)O)cs3)cc2)ncn1 [compound 579]
4 | 32 | COc1ccc(F)c2c1cc(C)n2CCNc1cc(-c2ccc(-c3nc(C(=O)O)cs3)cc2)ncn1 [compound 580]
5 | 33 | COc1cc(F)cc2c1cc(C)n2CCNc1cc(-c2ccc(-c3c[nH]c(C)n3)cc2)ncn1 [compound 581]
10 | 65 | COc1cc(F)cc2c1cc(C)n2CCNc1cc(-c2ccc(-c3cc(C)[nH]n3)cc2)ncn1 [compound 583]
2 | 106 | COc1cc(F)cc2c1cc(C)n2CCNc1cc(-c2ccc(C(=O)O)c(NCC(F)(F)F)c2)ncn1 [compound 587, 4-{6-[2-(6-Fluoro-4-methoxy-2-methyl-indol-1-yl)-ethylamino]-pyrimidin-4-yl}-2-(2,2,2-trifluoro-ethylamino)-benzoic acid]
2 | 92 | COc1ccc(F)c2c1cc(C)n2CCNc1cc(-c2ccc(C(=O)O)c(NCC(F)(F)F)c2)ncn1 [compound 588, 4-{6-[2-(7-Fluoro-4-methoxy-2-methyl-indol-1-yl)-ethylamino]-pyrimidin-4-yl}-2-(2,2,2-trifluoro-ethylamino)-benzoic acid]
18 | 178 | COc1ccc(F)c2c1cc(C)n2CCNc1cc(-c2ccc(-c3ccccn3)cc2)ncn1 [compound 590]
